Values after ≈ are worked out from the molar mass of the structure shown.
Tests used:
Enterococcus faecalis [1] = assay: Antimicrobial activity against vancomycin-sensitive Enterococcus faecalis after 18 hrs by broth microdilution method; assay type: functional
Staphylococcus aureus [2] = assay: Antibacterial activity against methicillin-sensitive Staphylococcus aureus after 18 hrs by broth microdilution method; assay type: functional
Staphylococcus aureus [3] = assay: Antibacterial activity against methicillin-resistant Staphylococcus aureus ATCC BAA-41 after 18 hrs by broth microdilution method; assay type: functional; settings: ATCC BAA-41, 18 h
Escherichia coli [4] = assay: Antibacterial activity against Escherichia coli ATCC 25922 after 18 hrs by broth microdilution method; assay type: functional; settings: ATCC 25922, 18 h
Enterococcus faecalis [5] = assay: Antimicrobial activity against vancomycin-resistant Enterococcus faecalis after 18 hrs by broth microdilution method; assay type: functional
Klebsiella pneumoniae = assay: Antibacterial activity against Klebsiella pneumoniae ATCC BAA-1144 after 18 hrs by broth microdilution method; assay type: functional; settings: ATCC BAA-1144, 18 h
[6] = Inhibition of Escherichia coli FtsZ polymerization expressed in Escherichia coli BL21 assessed as reduction in light scattering intensity in presence of GTP by fluorescence spectrometric analysis
[7] = system: Mycobacterium tuberculosis; assay: Antibacterial activity against Mycobacterium tuberculosis W210 clinical isolates measured every 24 hrs for 7 days by MABA assay; assay type: functional
[8] = system: Mycobacterium tuberculosis; assay: Antibacterial activity against Mycobacterium tuberculosis TN587 clinical isolates measured every 24 hrs for 7 days by MABA assay; assay type: functional
[9] = system: Mycobacterium tuberculosis; assay: Antibacterial activity against Mycobacterium tuberculosis H37Rv measured every 24 hrs for 7 days by MABA assay; assay type: functional
[10] = system: Mycobacterium tuberculosis; assay: Antibacterial activity against Mycobacterium tuberculosis NHN382 clinical isolates measured every 24 hrs for 7 days by MABA assay; assay type: functional
[11] = system: Mycobacterium tuberculosis; assay: Antimycobacterial activity against Mycobacterium tuberculosis H37Rv after 2 weeks; assay type: functional; settings: 336 h
[12] = Inhibition of Escherichia coli FtsZ GTPase activity expressed in Escherichia coli BL21 preincubated for 5 mins followed by GTP addition after 15 mins by malachite green based spectrophotometric analysis
[13] = system: Mycobacterium tuberculosis; assay: Antibacterial activity against Mycobacterium tuberculosis NHN20 clinical isolates measured every 24 hrs for 7 days by MABA assay; assay type: functional
[14] = system: Mycobacterium tuberculosis; assay: In vivo antibacterial activity against Mycobacterium tuberculosis str. Erdman infected in C57BL/6 mouse assessed as reduction in bacterial load in lungs at 50 mg/kg, ip bid on day 5 to 14 post infection measured on day 15 post infection; assay type: functional, Erdman = ATCC 35801
[15] = system: Mycobacterium tuberculosis; assay: In vivo antibacterial activity against Mycobacterium tuberculosis H37Rv infected in GKO-TB mouse assessed as reduction in bacterial load in spleen at 50 mg/kg, ip or po bid for 10 consecutive days; assay type: functional
[16] = Displacement of mant-GTP from Bacillus subtilis FtsZ by spectrofluorometric assay
Staphylococcus aureus [17] = assay: Antibacterial activity against Staphylococcus aureus ATCC 29213 after 18 hrs by broth microdilution assay; assay type: functional; settings: ATCC 29213, 18 h
[18] = biological target: T1, Cell division protein FtsZ (Staphylococcus aureus, UniProt P0A031); assay: Inhibition of Staphylococcus aureus ATCC 29213 N-terminal His6-tagged FtsZ GTPase activity expressed in Escherichia coli BL21(DE3) assessed as reduction in inorganic phosphate release preincubated for 10 mins followed by GTP addition after 30 mins
T1 sequence (P0A031 whole entry): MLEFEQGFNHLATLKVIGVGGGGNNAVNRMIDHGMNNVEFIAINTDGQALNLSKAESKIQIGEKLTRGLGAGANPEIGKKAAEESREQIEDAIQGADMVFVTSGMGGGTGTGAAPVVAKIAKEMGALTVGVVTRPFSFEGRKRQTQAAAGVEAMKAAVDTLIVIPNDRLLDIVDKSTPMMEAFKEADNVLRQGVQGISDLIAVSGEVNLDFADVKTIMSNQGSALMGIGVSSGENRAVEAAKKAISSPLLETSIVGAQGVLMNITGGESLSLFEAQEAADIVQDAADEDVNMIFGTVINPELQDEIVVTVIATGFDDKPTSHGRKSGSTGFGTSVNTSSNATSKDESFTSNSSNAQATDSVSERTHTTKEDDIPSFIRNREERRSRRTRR

Escherichia coli [19] = assay: Antibacterial activity against Escherichia coli ATCC 25922 after 18 hrs by broth microdilution assay; assay type: functional; settings: ATCC 25922, 18 h
Bacillus subtilis = assay: Antibacterial activity against Bacillus subtilis; assay type: functional

Work on C=CCc1ccc(O)c(OC)c1 [EUGENOL] yielded an MIC (Enterococcus faecalis [1]) of 4 to 16 µg/mL (≈ 24.4 to 97.4 µM), an MIC (Staphylococcus aureus [2]) of 2 to 8 µg/mL (≈ 12.2 to 48.7 µM) and an MIC (Staphylococcus aureus [3]) of 2 to 8 µg/mL (≈ 12.2 to 48.7 µM). It also gave an MIC (Escherichia coli [4]) of 32 to 128 µg/mL (≈ 195 to 780 µM), an MIC (Enterococcus faecalis [5]) of 4 to 16 µg/mL (≈ 24.4 to 97.4 µM) and an MIC (Klebsiella pneumoniae) of 32 to 128 µg/mL (≈ 195 to 780 µM). For the same molecule, the IC50 [6] was greater than 250 µM.

CCCCOC(=O)Nc1cc2nc(C3CCCCC3)[nH]c2cc1N1CCCC1 showed an MIC99 [7] of 0.63 µg/mL (≈ 1.64 µM), an MIC99 [8] of 0.16 µg/mL (≈ 0.416 µM) and an MIC99 [9] of 0.39 µg/mL (≈ 1.01 µM). For the same molecule, the MIC99 [10] was 0.31 µg/mL (≈ 0.806 µM).

Work on O=c1ccc2cc(CCO)c(O)cc2o1 yielded an MIC [11] of 60 µg/mL (≈ 291 µM).

Work on O=c1ccc2ccc(O)c(O)c2o1 [DAPHNETIN] yielded an MIC (Enterococcus faecalis [1]) of 4 to 16 µg/mL (≈ 22.5 to 89.8 µM), an MIC (Staphylococcus aureus [2]) of 2 to 8 µg/mL (≈ 11.2 to 44.9 µM) and an MIC (Staphylococcus aureus [3]) of 2 to 8 µg/mL (≈ 11.2 to 44.9 µM). It also gave an IC50 [12] of 57 µM, an MIC (Escherichia coli [4]) of 32 to 128 µg/mL (≈ 180 to 719 µM) and an MIC (Klebsiella pneumoniae) of 32 to 128 µg/mL (≈ 180 to 719 µM). It also gave an IC50 [6] of 73 µM.

O=C(O)/C=C/c1ccccc1 [CINNAMIC ACID] showed an MIC (Enterococcus faecalis [1]) of 4 to 16 µg/mL (≈ 27 to 108 µM), an MIC (Staphylococcus aureus [2]) of 2 to 8 µg/mL (≈ 13.5 to 54 µM) and an MIC (Staphylococcus aureus [3]) of 2 to 8 µg/mL (≈ 13.5 to 54 µM). For the same molecule, the MIC (Escherichia coli [4]) was 32 to 128 µg/mL (≈ 216 to 864 µM), the MIC (Klebsiella pneumoniae) was 32 to 128 µg/mL (≈ 216 to 864 µM) and the IC50 [6] was 239 µM.

For COc1cc2ccc(=O)oc2cc1O [SCOPOLETIN], the MIC [11] was 42 µg/mL (≈ 219 µM), the MIC (Enterococcus faecalis [1]) was 4 to 16 µg/mL (≈ 20.8 to 83.3 µM) and the MIC (Staphylococcus aureus [2]) was 2 to 8 µg/mL (≈ 10.4 to 41.6 µM). For the same molecule, the MIC (Staphylococcus aureus [3]) was 2 to 8 µg/mL (≈ 10.4 to 41.6 µM), the IC50 [12] was 23 µM and the MIC (Escherichia coli [4]) was 32 to 128 µg/mL (≈ 167 to 666 µM). It also gave an MIC (Klebsiella pneumoniae) of 32 to 128 µg/mL (≈ 167 to 666 µM) and an IC50 [6] of 41 µM.

For CN(C)c1cc2[nH]c(C3CCCCC3)nc2cc1NC(=O)c1ccc(OC(F)(F)F)cc1F, the MIC99 [13] was 0.24 µg/mL (≈ 0.517 µM), the Activity [14] was 5.7 - 6.3 log10CFU and the MIC99 [7] was 0.47 µg/mL (≈ 1.01 µM). For the same molecule, the MIC99 [8] was 0.31 µg/mL (≈ 0.667 µM), the MIC99 [9] was 0.31 µg/mL (≈ 0.667 µM) and the Activity [15] was 3.9 - 5 log10CFU. The MIC99 [10] was 0.31 µg/mL (≈ 0.667 µM).

In the case of CN(C)c1cc2[nH]c(C3CCCCC3)nc2cc1NC(=O)c1ccc(C(F)(F)F)cc1F, the MIC99 [13] is reported as 0.16 µg/mL (≈ 0.357 µM), the Activity [14] is reported as 5.7 - 6.3 log10CFU and the MIC99 [7] is reported as 0.31 µg/mL (≈ 0.691 µM). The MIC99 [8] was 0.24 µg/mL (≈ 0.535 µM), the MIC99 [9] was 0.18 µg/mL (≈ 0.401 µM) and the Activity [15] was 3.9 - 5 log10CFU. It also gave an MIC99 [10] of 0.16 µg/mL (≈ 0.357 µM).

Work on O=C(Oc1cc(OC(=O)c2cccc(O)c2)cc(-c2ccccc2)c1)c1cccc(O)c1 yielded a Kd [16] of 0.5 µM.

In the case of CC(C)(C)c1ccc(-c2ncnc3c(CNC(=N)N)cccc23)cc1, the MIC (Staphylococcus aureus [17]) is reported as 449 µM (≈ 150 µg/mL), the IC50 [18] is reported as 317 µM and the MIC (Escherichia coli [19]) is reported as 897 µM (≈ 299 µg/mL).

Work on Oc1cc(O)c2c(c1)C/C(Cl)=C\Cc1cc(c(Cl)cc1O)Oc1c(O)cc(cc1O)C/C(Cl)=C\Cc1cc(c(Cl)cc1O)O2 yielded an MIC (Enterococcus faecalis [1]) of 4 to 16 µg/mL (≈ 5.9 to 23.6 µM), an MIC (Staphylococcus aureus [2]) of 2 to 8 µg/mL (≈ 2.95 to 11.8 µM) and an MIC (Staphylococcus aureus [3]) of 2 to 8 µg/mL (≈ 2.95 to 11.8 µM). For the same molecule, the MIC (Escherichia coli [4]) was 32 to 128 µg/mL (≈ 47.2 to 189 µM) and the MIC (Klebsiella pneumoniae) was 32 to 128 µg/mL (≈ 47.2 to 189 µM).

Molecule Cc1nc2ccccc2n1C(=O)/C=C/c1ccc(Cl)cc1Cl has an MIC (Enterococcus faecalis [1]) of 4 to 16 µg/mL (≈ 12.1 to 48.3 µM), an MIC (Staphylococcus aureus [2]) of 2 to 8 µg/mL (≈ 6.04 to 24.2 µM) and an MIC (Staphylococcus aureus [3]) of 2 to 8 µg/mL (≈ 6.04 to 24.2 µM). It also gave an MIC (Escherichia coli [4]) of 32 to 128 µg/mL (≈ 96.6 to 386 µM) and an MIC (Klebsiella pneumoniae) of 32 to 128 µg/mL (≈ 96.6 to 386 µM).

Work on O=C(Oc1cc(OC(=O)c2ccc(O)c(Cl)c2)c2ccccc2c1)c1ccc(O)c(Cl)c1 yielded an MIC (Bacillus subtilis) of 13 µM (≈ 6.1 µg/mL).

For CCc1ccc(C(=O)Nc2cc3nc(C4CCCCC4)[nH]c3cc2N(C)C)cc1, the MIC99 [7] was 0.16 µg/mL (≈ 0.41 µM), the MIC99 [8] was 0.16 µg/mL (≈ 0.41 µM) and the MIC99 [9] was 0.16 µg/mL (≈ 0.41 µM). The MIC99 [10] was 0.16 µg/mL (≈ 0.41 µM).

Work on COc1cc(C/C=C(/Cl)Cc2cc(O)cc(O)c2)c(OC)cc1Cl yielded an MIC (Enterococcus faecalis [1]) of 4 to 16 µg/mL (≈ 10.8 to 43.3 µM), an MIC (Staphylococcus aureus [2]) of 2 to 8 µg/mL (≈ 5.42 to 21.7 µM) and an MIC (Staphylococcus aureus [3]) of 2 to 8 µg/mL (≈ 5.42 to 21.7 µM). For the same molecule, the MIC (Escherichia coli [4]) was 32 to 128 µg/mL (≈ 86.7 to 347 µM) and the MIC (Klebsiella pneumoniae) was 32 to 128 µg/mL (≈ 86.7 to 347 µM).

Molecule O=C(O)/C=C/c1ccc(O)cc1 [COUMARIC ACID] has an MIC (Enterococcus faecalis [1]) of 4 to 16 µg/mL (≈ 24.4 to 97.5 µM), an MIC (Staphylococcus aureus [2]) of 2 to 8 µg/mL (≈ 12.2 to 48.7 µM) and an MIC (Staphylococcus aureus [3]) of 2 to 8 µg/mL (≈ 12.2 to 48.7 µM). It also gave an MIC (Escherichia coli [4]) of 32 to 128 µg/mL (≈ 195 to 780 µM), an MIC (Klebsiella pneumoniae) of 32 to 128 µg/mL (≈ 195 to 780 µM) and an IC50 [6] of 190 µM.

For CCCCOC(=O)Nc1cc2nc(C3CCCCC3)[nH]c2cc1N(C)C, the MIC99 [7] was 0.06 µg/mL (≈ 0.167 µM), the MIC99 [8] was 0.13 µg/mL (≈ 0.363 µM) and the MIC99 [9] was 0.06 µg/mL (≈ 0.167 µM). The MIC99 [10] was 0.06 µg/mL (≈ 0.167 µM).

— ChEMBL document CHEMBL3865781, “Recent advances in the discovery and development of antibacterial agents targeting the cell-division protein FtsZ” (Bioorg Med Chem, 2016)
